Usually viability, T/C stands for the result in the treated group divided by that in the control group, in per cent.
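Note: spheroids exposed to compounds for seven days; 100% = DMSO vehicle control viability.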

One assay deals with 889142-216-R-J1-PDC complex spheroid viability. The experiment in a line: Anticancer human tumor 889142-216-R-J1-PDC patient-derived bladder carcinoma cell line growth inhibition [POLQ]. The conditions noted are these: second compound 0.316 µM; first compound 0.316 µM; active compounds read low. The procedure, abridged:
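PDC + HUVEC + MSC complex spheroids; POLQ inhibitors ± partner drugs; top conc. at/near clinical Cmax, else 10 microM (SN-38 1 microM), half-log dilutions; 37 degrees C, 5% CO2.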
In the case of `C=CCn1c(=O)c2cnc(Nc3ccc(N4CCN(C)CC4)cc3)nc2n1-c1cccc(C(C)(C)O)n1` + Cc1cccc(N(C)C(=O)C2C(O)CCN2c2nc(C)cc(C(F)(F)F)c2C#N)c1, the viability, T/C was 75%.
`CCCS(=O)(=O)Nc1ccc(F)c(C(=O)c2c[nH]c3ncc(-c4ccc(Cl)cc4)cc23)c1F` + Cc1cccc(N(C)C(=O)C2C(O)CCN2c2nc(C)cc(C(F)(F)F)c2C#N)c1: the viability, T/C is 93.3%.
On to `CNCc1ccc(-c2[nH]c3cc(F)cc4c3c2CCNC4=O)cc1` + Cc1cccc(N(C)C(=O)C2C(O)CCN2c2nc(C)cc(C(F)(F)F)c2C#N)c1, for which the viability, T/C is 109%.
As to `COc1cccc(OCCCN)c1-c1cc(Nc2cnc(C#N)cn2)n[nH]1` + Cc1cccc(N(C)C(=O)C2C(O)CCN2c2nc(C)cc(C(F)(F)F)c2C#N)c1, the viability, T/C was 50.5%.

Staying with this assay, now noted: second compound 0.316 µM; first compound 1 µM; active compounds read low.
For the molecule `C=CCn1c(=O)c2cnc(Nc3ccc(N4CCN(C)CC4)cc3)nc2n1-c1cccc(C(C)(C)O)n1` + Cc1cccc(N(C)C(=O)C2C(O)CCN2c2nc(C)cc(C(F)(F)F)c2C#N)c1, the viability, T/C was 69.3%.
On the same count and under the same terms, next, `CCCS(=O)(=O)Nc1ccc(F)c(C(=O)c2c[nH]c3ncc(-c4ccc(Cl)cc4)cc23)c1F` + Cc1cccc(N(C)C(=O)C2C(O)CCN2c2nc(C)cc(C(F)(F)F)c2C#N)c1: 91.7%.
`CNCc1ccc(-c2[nH]c3cc(F)cc4c3c2CCNC4=O)cc1` + Cc1cccc(N(C)C(=O)C2C(O)CCN2c2nc(C)cc(C(F)(F)F)c2C#N)c1: the viability, T/C was 110%.
On the same count and under the same terms, for `COc1cccc(OCCCN)c1-c1cc(Nc2cnc(C#N)cn2)n[nH]1` + Cc1cccc(N(C)C(=O)C2C(O)CCN2c2nc(C)cc(C(F)(F)F)c2C#N)c1 the value was 39.7%.

The assay is the same for the next values; noted with them: second compound 0.316 µM; first compound 3.16 µM; active compounds read low.
As for `CCCS(=O)(=O)Nc1ccc(F)c(C(=O)c2c[nH]c3ncc(-c4ccc(Cl)cc4)cc23)c1F` + Cc1cccc(N(C)C(=O)C2C(O)CCN2c2nc(C)cc(C(F)(F)F)c2C#N)c1, the viability, T/C is 72.1%.
Same read-out and setting: for `CNCc1ccc(-c2[nH]c3cc(F)cc4c3c2CCNC4=O)cc1` + Cc1cccc(N(C)C(=O)C2C(O)CCN2c2nc(C)cc(C(F)(F)F)c2C#N)c1 the value was 126%.

The assay is the same for the next values; noted with them: second compound 0.316 µM; first compound 10 µM; active compounds read low.
Consider `CCCS(=O)(=O)Nc1ccc(F)c(C(=O)c2c[nH]c3ncc(-c4ccc(Cl)cc4)cc23)c1F` + Cc1cccc(N(C)C(=O)C2C(O)CCN2c2nc(C)cc(C(F)(F)F)c2C#N)c1, for which the viability, T/C was 60.5%.
Same read-out and setting: next, `CNCc1ccc(-c2[nH]c3cc(F)cc4c3c2CCNC4=O)cc1` + Cc1cccc(N(C)C(=O)C2C(O)CCN2c2nc(C)cc(C(F)(F)F)c2C#N)c1: 79.9%.

The same assay, now with this note: second compound 1 µM; first compound 0.00316 µM; active compounds read low.
As to `C=CCn1c(=O)c2cnc(Nc3ccc(N4CCN(C)CC4)cc3)nc2n1-c1cccc(C(C)(C)O)n1` + Cc1cccc(N(C)C(=O)C2C(O)CCN2c2nc(C)cc(C(F)(F)F)c2C#N)c1, the viability, T/C was 118%.
Same read-out and setting: next, `COc1cccc(OCCCN)c1-c1cc(Nc2cnc(C#N)cn2)n[nH]1` + Cc1cccc(N(C)C(=O)C2C(O)CCN2c2nc(C)cc(C(F)(F)F)c2C#N)c1: 110%.

The assay is the same for the next values; noted with them: second compound 1 µM; first compound 0.01 µM; active compounds read low.
As to `C=CCn1c(=O)c2cnc(Nc3ccc(N4CCN(C)CC4)cc3)nc2n1-c1cccc(C(C)(C)O)n1` + Cc1cccc(N(C)C(=O)C2C(O)CCN2c2nc(C)cc(C(F)(F)F)c2C#N)c1, the viability, T/C was 84.4%.
The same measure, in the same setting: for `COc1cccc(OCCCN)c1-c1cc(Nc2cnc(C#N)cn2)n[nH]1` + Cc1cccc(N(C)C(=O)C2C(O)CCN2c2nc(C)cc(C(F)(F)F)c2C#N)c1 the value was 62%.

The same assay, now with this note: second compound 1 µM; first compound 0.0316 µM; active compounds read low.
Turning to `C=CCn1c(=O)c2cnc(Nc3ccc(N4CCN(C)CC4)cc3)nc2n1-c1cccc(C(C)(C)O)n1` + Cc1cccc(N(C)C(=O)C2C(O)CCN2c2nc(C)cc(C(F)(F)F)c2C#N)c1, the viability, T/C is 88.9%.
Still for that read-out and setting: for `CCCS(=O)(=O)Nc1ccc(F)c(C(=O)c2c[nH]c3ncc(-c4ccc(Cl)cc4)cc23)c1F` + Cc1cccc(N(C)C(=O)C2C(O)CCN2c2nc(C)cc(C(F)(F)F)c2C#N)c1 the value was 94.9%.
Still for that read-out and setting: next, `CNCc1ccc(-c2[nH]c3cc(F)cc4c3c2CCNC4=O)cc1` + Cc1cccc(N(C)C(=O)C2C(O)CCN2c2nc(C)cc(C(F)(F)F)c2C#N)c1: 82.3%; `COc1cccc(OCCCN)c1-c1cc(Nc2cnc(C#N)cn2)n[nH]1` + Cc1cccc(N(C)C(=O)C2C(O)CCN2c2nc(C)cc(C(F)(F)F)c2C#N)c1: 50.7%.

Staying with this assay, now noted: second compound 1 µM; first compound 0.1 µM; active compounds read low.
As for `C=CCn1c(=O)c2cnc(Nc3ccc(N4CCN(C)CC4)cc3)nc2n1-c1cccc(C(C)(C)O)n1` + Cc1cccc(N(C)C(=O)C2C(O)CCN2c2nc(C)cc(C(F)(F)F)c2C#N)c1, the viability, T/C is 85.2%.
As for `CCCS(=O)(=O)Nc1ccc(F)c(C(=O)c2c[nH]c3ncc(-c4ccc(Cl)cc4)cc23)c1F` + Cc1cccc(N(C)C(=O)C2C(O)CCN2c2nc(C)cc(C(F)(F)F)c2C#N)c1, the viability, T/C is 91.1%.
On the same count and under the same terms, next, `CNCc1ccc(-c2[nH]c3cc(F)cc4c3c2CCNC4=O)cc1` + Cc1cccc(N(C)C(=O)C2C(O)CCN2c2nc(C)cc(C(F)(F)F)c2C#N)c1: 120%.
As for `COc1cccc(OCCCN)c1-c1cc(Nc2cnc(C#N)cn2)n[nH]1` + Cc1cccc(N(C)C(=O)C2C(O)CCN2c2nc(C)cc(C(F)(F)F)c2C#N)c1, the viability, T/C is 51.7%.

The same assay, now with this note: second compound 1 µM; first compound 0.316 µM; active compounds read low.
Consider `C=CCn1c(=O)c2cnc(Nc3ccc(N4CCN(C)CC4)cc3)nc2n1-c1cccc(C(C)(C)O)n1` + Cc1cccc(N(C)C(=O)C2C(O)CCN2c2nc(C)cc(C(F)(F)F)c2C#N)c1, for which the viability, T/C is 90.5%.
Same read-out and setting: next, `CCCS(=O)(=O)Nc1ccc(F)c(C(=O)c2c[nH]c3ncc(-c4ccc(Cl)cc4)cc23)c1F` + Cc1cccc(N(C)C(=O)C2C(O)CCN2c2nc(C)cc(C(F)(F)F)c2C#N)c1: 92.7%; `CNCc1ccc(-c2[nH]c3cc(F)cc4c3c2CCNC4=O)cc1` + Cc1cccc(N(C)C(=O)C2C(O)CCN2c2nc(C)cc(C(F)(F)F)c2C#N)c1: 104%; `COc1cccc(OCCCN)c1-c1cc(Nc2cnc(C#N)cn2)n[nH]1` + Cc1cccc(N(C)C(=O)C2C(O)CCN2c2nc(C)cc(C(F)(F)F)c2C#N)c1: 56.8%.

The assay is the same for the next values; noted with them: second compound 1 µM; first compound 1 µM; active compounds read low.
`C=CCn1c(=O)c2cnc(Nc3ccc(N4CCN(C)CC4)cc3)nc2n1-c1cccc(C(C)(C)O)n1` + Cc1cccc(N(C)C(=O)C2C(O)CCN2c2nc(C)cc(C(F)(F)F)c2C#N)c1: the viability, T/C was 61.8%.
Turning to `CCCS(=O)(=O)Nc1ccc(F)c(C(=O)c2c[nH]c3ncc(-c4ccc(Cl)cc4)cc23)c1F` + Cc1cccc(N(C)C(=O)C2C(O)CCN2c2nc(C)cc(C(F)(F)F)c2C#N)c1, the viability, T/C is 90.5%.
Take `CNCc1ccc(-c2[nH]c3cc(F)cc4c3c2CCNC4=O)cc1` + Cc1cccc(N(C)C(=O)C2C(O)CCN2c2nc(C)cc(C(F)(F)F)c2C#N)c1: the viability, T/C is 119%.
Regarding `COc1cccc(OCCCN)c1-c1cc(Nc2cnc(C#N)cn2)n[nH]1` + Cc1cccc(N(C)C(=O)C2C(O)CCN2c2nc(C)cc(C(F)(F)F)c2C#N)c1, the viability, T/C is 38.2%.

Still in this assay, the particulars now being: second compound 1 µM; first compound 3.16 µM; active compounds read low.
On to `CCCS(=O)(=O)Nc1ccc(F)c(C(=O)c2c[nH]c3ncc(-c4ccc(Cl)cc4)cc23)c1F` + Cc1cccc(N(C)C(=O)C2C(O)CCN2c2nc(C)cc(C(F)(F)F)c2C#N)c1, for which the viability, T/C is 66.8%.
Same read-out and setting: next, `CNCc1ccc(-c2[nH]c3cc(F)cc4c3c2CCNC4=O)cc1` + Cc1cccc(N(C)C(=O)C2C(O)CCN2c2nc(C)cc(C(F)(F)F)c2C#N)c1: 113%.

Still in this assay, the particulars now being: second compound 1 µM; first compound 10 µM; active compounds read low.
Turning to `CCCS(=O)(=O)Nc1ccc(F)c(C(=O)c2c[nH]c3ncc(-c4ccc(Cl)cc4)cc23)c1F` + Cc1cccc(N(C)C(=O)C2C(O)CCN2c2nc(C)cc(C(F)(F)F)c2C#N)c1, the viability, T/C is 48.9%.
The same measure, in the same setting: for `CNCc1ccc(-c2[nH]c3cc(F)cc4c3c2CCNC4=O)cc1` + Cc1cccc(N(C)C(=O)C2C(O)CCN2c2nc(C)cc(C(F)(F)F)c2C#N)c1 the value was 70.7%.

The same assay, now with this note: second compound 3.16 µM; first compound 0.00316 µM; active compounds read low.
`C=CCn1c(=O)c2cnc(Nc3ccc(N4CCN(C)CC4)cc3)nc2n1-c1cccc(C(C)(C)O)n1` + Cc1cccc(N(C)C(=O)C2C(O)CCN2c2nc(C)cc(C(F)(F)F)c2C#N)c1: the viability, T/C was 117%.
Still for that read-out and setting: next, `COc1cccc(OCCCN)c1-c1cc(Nc2cnc(C#N)cn2)n[nH]1` + Cc1cccc(N(C)C(=O)C2C(O)CCN2c2nc(C)cc(C(F)(F)F)c2C#N)c1: 81%.

Staying with this assay, now noted: second compound 3.16 µM; first compound 0.01 µM; active compounds read low.
In the case of `C=CCn1c(=O)c2cnc(Nc3ccc(N4CCN(C)CC4)cc3)nc2n1-c1cccc(C(C)(C)O)n1` + Cc1cccc(N(C)C(=O)C2C(O)CCN2c2nc(C)cc(C(F)(F)F)c2C#N)c1, the viability, T/C was 113%.
Same read-out and setting: for `COc1cccc(OCCCN)c1-c1cc(Nc2cnc(C#N)cn2)n[nH]1` + Cc1cccc(N(C)C(=O)C2C(O)CCN2c2nc(C)cc(C(F)(F)F)c2C#N)c1 the value was 73.6%.

The assay is the same for the next values; noted with them: second compound 3.16 µM; first compound 0.0316 µM; active compounds read low.
Take `C=CCn1c(=O)c2cnc(Nc3ccc(N4CCN(C)CC4)cc3)nc2n1-c1cccc(C(C)(C)O)n1` + Cc1cccc(N(C)C(=O)C2C(O)CCN2c2nc(C)cc(C(F)(F)F)c2C#N)c1: the viability, T/C was 78.2%.
Still for that read-out and setting: next, `CCCS(=O)(=O)Nc1ccc(F)c(C(=O)c2c[nH]c3ncc(-c4ccc(Cl)cc4)cc23)c1F` + Cc1cccc(N(C)C(=O)C2C(O)CCN2c2nc(C)cc(C(F)(F)F)c2C#N)c1: 101%.

The values above are taken from PubChem BioAssay AID1963831 (Molecular Pharmacology Branch, DTP, NCI, 2024).
